Data from article PMC9508125, “The evolutionary advantage of an aromatic clamp in plant family 3 glycoside exo-hydrolases” (Nature Communications, 2022).
Changes are numbered by the printed parent chain.

How the values were obtained:
Experiment in all cases: Steady-state apparent kinetic constants with substrates
Format in all cases: biochemical
Conditions in all cases: substance is the substrate
HvExoI W286F mutant = target: T1, HvExoI W286F mutant (Hordeum vulgare, UniProt Q9XEI3, W311F)
T1 sequence (Q9XEI3 26-630 W311F): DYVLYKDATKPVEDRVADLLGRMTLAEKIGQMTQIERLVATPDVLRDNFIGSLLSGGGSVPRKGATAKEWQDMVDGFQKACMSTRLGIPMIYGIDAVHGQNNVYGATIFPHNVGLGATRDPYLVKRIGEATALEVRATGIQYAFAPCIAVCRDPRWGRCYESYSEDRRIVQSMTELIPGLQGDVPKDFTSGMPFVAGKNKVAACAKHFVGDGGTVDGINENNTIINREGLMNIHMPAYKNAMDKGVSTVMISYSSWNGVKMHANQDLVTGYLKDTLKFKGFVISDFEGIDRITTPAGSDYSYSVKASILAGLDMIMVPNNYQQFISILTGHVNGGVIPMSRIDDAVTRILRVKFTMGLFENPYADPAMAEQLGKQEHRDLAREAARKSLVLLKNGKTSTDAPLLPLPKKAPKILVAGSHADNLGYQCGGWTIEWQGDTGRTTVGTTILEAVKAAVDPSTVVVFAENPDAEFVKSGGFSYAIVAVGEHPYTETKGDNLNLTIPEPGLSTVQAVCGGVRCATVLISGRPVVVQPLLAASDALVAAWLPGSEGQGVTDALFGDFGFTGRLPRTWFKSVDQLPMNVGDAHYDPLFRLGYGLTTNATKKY
Description: (§1) Dependency of activities of WT and mutant HvExoI on pH (McIlvaine buffers in the pH range of 3.5–8.5 at 30 °C) and temperature (100 mM sodium acetate buffer, pH 5.25, temperature range 0–80 °C, 15 min incubations) were determined using 0.2% (w/v) 4NP-Glc[21],[59]. Relative rates of hydrolysis of β-linked poly-, oligosaccharides, and aryl-glucosides were determined using near-homogenous HvExoI at 50 pmoles. […] Kinetic parameters were calculated from the analyses of Michaelis-Menten plots with Grafit 7.0.3[62] and processed by a proportional weighted fit, using nonlinear regression. The relative rates of hydrolysis, kinetic, and inhibition data were rounded to one or two decimal points (Supplementary Tables 2–4).

[1] = target: T2, HvExoI W286F/W434F mutant (Hordeum vulgare, UniProt Q9XEI3, W311F/W459F)
T2 sequence (Q9XEI3 26-630 W311F/W459F): T1 sequence (Q9XEI3 26-630 W311F) with W434F
Description: as §1

HvExoI W286Y mutant = target: T3, HvExoI W286Y mutant (Hordeum vulgare, UniProt Q9XEI3, W311Y)
T3 sequence (Q9XEI3 26-630 W311Y): T1 sequence (Q9XEI3 26-630 W311F) with F286Y
Description: as §1

laminarin
Km (HvExoI W286F mutant): 200 ± 10 µM | kcat (HvExoI W286F mutant): 4.5 ± 0.3 s⁻¹ | kcat [1]: 0.4 ± 0.1 s⁻¹ | Km (HvExoI W286Y mutant): 100 ± 10 µM | kcat (HvExoI W286Y mutant): 30.3 ± 2.4 s⁻¹
